From PubChem BioAssay (NCI)
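In this assay, cells in 96-well plates receive the compound at five concentrations for 48 hours. Endpoints are linearly interpolated between the surrounding concentrations. At the TGI there is no net growth.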

Tests used:
Experiment in all cases: growth of human tumour cells (NCI), 48 h
786-0 renal = test system: 786-0 renal
A498 renal = test system: A498 renal
A549 NSCLC = test system: A549 NSCLC
ACHN renal = test system: ACHN renal
BT-549 breast = test system: BT-549 breast
CAKI-1 renal = test system: CAKI-1 renal
CCRF-CEM leukemia = test system: CCRF-CEM leukemia
COLO 205 colon = test system: COLO 205 colon
DU-145 prostate = test system: DU-145 prostate
EKVX NSCLC = test system: EKVX NSCLC
HCC-2998 colon = test system: HCC-2998 colon
HCT-116 colon = test system: HCT-116 colon
HCT-15 colon = test system: HCT-15 colon
HL-60(TB) leukemia = test system: HL-60(TB) leukemia
HOP-62 NSCLC = test system: HOP-62 NSCLC
HOP-92 NSCLC = test system: HOP-92 NSCLC
HS 578T breast = test system: HS 578T breast
HT29 colon = test system: HT29 colon
IGROV1 ovarian = test system: IGROV1 ovarian
K-562 leukemia = test system: K-562 leukemia
KM12 colon = test system: KM12 colon
LOX IMVI melanoma = test system: LOX IMVI melanoma
M14 melanoma = test system: M14 melanoma
MALME-3M melanoma = test system: MALME-3M melanoma
MCF7 breast = test system: MCF7 breast
MDA-MB-231 breast = test system: MDA-MB-231 breast
MDA-MB-435 = test system: MDA-MB-435
MDA-N = test system: MDA-N
MOLT-4 leukemia = test system: MOLT-4 leukemia
NCI-H226 lung = test system: NCI-H226 lung
NCI-H23 lung = test system: NCI-H23 lung
NCI-H460 lung = test system: NCI-H460 lung
NCI-H522 lung = test system: NCI-H522 lung
NCI/ADR-RES ovarian = test system: NCI/ADR-RES ovarian
OVCAR-3 ovarian = test system: OVCAR-3 ovarian
OVCAR-4 ovarian = test system: OVCAR-4 ovarian
OVCAR-5 ovarian = test system: OVCAR-5 ovarian
OVCAR-8 ovarian = test system: OVCAR-8 ovarian
PC-3 prostate = test system: PC-3 prostate
RPMI-8226 leukemia = test system: RPMI-8226 leukemia
RXF 393 renal = test system: RXF 393 renal
SF-268 CNS = test system: SF-268 CNS
SF-295 CNS = test system: SF-295 CNS
SF-539 CNS = test system: SF-539 CNS
SK-MEL-2 melanoma = test system: SK-MEL-2 melanoma
SK-MEL-28 melanoma = test system: SK-MEL-28 melanoma
SK-MEL-5 melanoma = test system: SK-MEL-5 melanoma
SK-OV-3 ovarian = test system: SK-OV-3 ovarian
SN12C renal = test system: SN12C renal
SNB-19 CNS = test system: SNB-19 CNS
SNB-75 CNS = test system: SNB-75 CNS
SR leukemia = test system: SR leukemia
SW-620 colon = test system: SW-620 colon
T-47D breast = test system: T-47D breast
TK-10 renal = test system: TK-10 renal
U251 CNS = test system: U251 CNS
UACC-257 melanoma = test system: UACC-257 melanoma
UACC-62 melanoma = test system: UACC-62 melanoma
UO-31 renal = test system: UO-31 renal

## CC1C(c2ccc3c(c2)OCO3)c2cc3c(cc2OC1N1CCOCC1)OCO3 (stereo not drawn)
786-0 renal
  TGI: > 100 µM
A498 renal
  TGI: 65.6 µM
A549 NSCLC
  TGI: > 100 µM
ACHN renal
  TGI: > 100 µM
BT-549 breast
  TGI: > 100 µM
CAKI-1 renal
  TGI: > 82.7 µM
CCRF-CEM leukemia
  TGI: 73.3 µM
COLO 205 colon
  TGI: 47.4 µM
DU-145 prostate
  TGI: > 100 µM
EKVX NSCLC
  TGI: > 100 µM
HCC-2998 colon
  TGI: 65.6 µM
HCT-116 colon
  TGI: 47.3 µM
HCT-15 colon
  TGI: > 93.7 µM
HL-60(TB) leukemia
  TGI: > 62.2 µM
HOP-62 NSCLC
  TGI: 78.6 µM
HOP-92 NSCLC
  TGI: 78.4 µM
HS 578T breast
  TGI: 55.2 µM
HT29 colon
  TGI: > 85 µM
IGROV1 ovarian
  TGI: > 100 µM
K-562 leukemia
  TGI: 67.7 µM
KM12 colon
  TGI: 94.2 µM
LOX IMVI melanoma
  TGI: 60.2 µM
M14 melanoma
  TGI: 76.9 µM
MALME-3M melanoma
  TGI: 97.6 µM
MCF7 breast
  TGI: 65.8 µM
MDA-MB-231 breast
  TGI: > 100 µM
MDA-MB-435
  TGI: 27.6 µM
MDA-N
  TGI: 29.1 µM
MOLT-4 leukemia
  TGI: 66.9 µM
NCI-H226 lung
  TGI: 81.7 µM
NCI-H23 lung
  TGI: > 100 µM
NCI-H460 lung
  TGI: > 80.1 µM
NCI-H522 lung
  TGI: 31.1 µM
NCI/ADR-RES ovarian
  TGI: 60.6 µM
OVCAR-3 ovarian
  TGI: > 93.8 µM
OVCAR-4 ovarian
  TGI: > 100 µM
OVCAR-5 ovarian
  TGI: > 100 µM
OVCAR-8 ovarian
  TGI: > 100 µM
PC-3 prostate
  TGI: > 100 µM
RPMI-8226 leukemia
  TGI: 61.6 µM
RXF 393 renal
  TGI: 51.9 µM
SF-268 CNS
  TGI: > 100 µM
SF-295 CNS
  TGI: > 93 µM
SF-539 CNS
  TGI: 49.5 µM
SK-MEL-2 melanoma
  TGI: 58.8 µM
SK-MEL-28 melanoma
  TGI: > 46.4 µM
SK-MEL-5 melanoma
  TGI: 42.7 µM
SK-OV-3 ovarian
  TGI: > 100 µM
SN12C renal
  TGI: > 100 µM
SNB-19 CNS
  TGI: 86.5 µM
SNB-75 CNS
  TGI: 99.3 µM
SR leukemia
  TGI: > 80.2 µM
SW-620 colon
  TGI: > 100 µM
T-47D breast
  TGI: > 100 µM
TK-10 renal
  TGI: > 100 µM
U251 CNS
  TGI: > 83.8 µM
UACC-257 melanoma
  TGI: > 100 µM
UACC-62 melanoma
  TGI: 69.5 µM
UO-31 renal
  TGI: 85 µM

## Cn1ccnc1Sc1ccc(C=Nc2ccc3nc(SCC(=O)NC4CCCCC4)sc3c2)cc1[N+](=O)[O-]
786-0 renal
  TGI: 49 µM
A498 renal
  TGI: 48.2 µM
A549 NSCLC
  TGI: > 100 µM
ACHN renal
  TGI: > 100 µM
BT-549 breast
  TGI: 46.8 µM
CAKI-1 renal
  TGI: > 100 µM
CCRF-CEM leukemia
  TGI: > 100 µM
COLO 205 colon
  TGI: > 100 µM
DU-145 prostate
  TGI: > 100 µM
EKVX NSCLC
  TGI: > 100 µM
HCC-2998 colon
  TGI: > 100 µM
HCT-116 colon
  TGI: > 100 µM
HCT-15 colon
  TGI: > 100 µM
HL-60(TB) leukemia
  TGI: > 100 µM
HOP-62 NSCLC
  TGI: > 100 µM
HOP-92 NSCLC
  TGI: 32.5 µM
HS 578T breast
  TGI: 96.3 µM
HT29 colon
  TGI: > 100 µM
IGROV1 ovarian
  TGI: > 100 µM
K-562 leukemia
  TGI: > 100 µM
KM12 colon
  TGI: > 100 µM
LOX IMVI melanoma
  TGI: > 100 µM
M14 melanoma
  TGI: > 100 µM
MALME-3M melanoma
  TGI: > 100 µM
MCF7 breast
  TGI: > 100 µM
MDA-MB-231 breast
  TGI: 99.4 µM
MDA-MB-435
  TGI: > 100 µM
MDA-N
  TGI: > 100 µM
MOLT-4 leukemia
  TGI: > 100 µM
NCI-H226 lung
  TGI: > 100 µM
NCI-H23 lung
  TGI: > 100 µM
NCI-H460 lung
  TGI: > 100 µM
NCI-H522 lung
  TGI: > 100 µM
NCI/ADR-RES ovarian
  TGI: > 100 µM
OVCAR-3 ovarian
  TGI: > 100 µM
OVCAR-4 ovarian
  TGI: > 100 µM
OVCAR-5 ovarian
  TGI: > 100 µM
OVCAR-8 ovarian
  TGI: > 100 µM
PC-3 prostate
  TGI: > 100 µM
RPMI-8226 leukemia
  TGI: > 100 µM
RXF 393 renal
  TGI: 23.4 µM
SF-268 CNS
  TGI: > 100 µM
SF-295 CNS
  TGI: 44.4 µM
SF-539 CNS
  TGI: 22.3 µM
SK-MEL-2 melanoma
  TGI: 54.1 µM
SK-MEL-28 melanoma
  TGI: > 100 µM
SK-MEL-5 melanoma
  TGI: > 100 µM
SK-OV-3 ovarian
  TGI: 58.4 µM
SN12C renal
  TGI: > 100 µM
SNB-19 CNS
  TGI: 55.9 µM
SNB-75 CNS
  TGI: 8.84 µM
SR leukemia
  TGI: > 100 µM
SW-620 colon
  TGI: > 100 µM
T-47D breast
  TGI: > 100 µM
TK-10 renal
  TGI: 32.2 µM
U251 CNS
  TGI: 33.9 µM
UACC-257 melanoma
  TGI: > 100 µM
UACC-62 melanoma
  TGI: > 100 µM
UO-31 renal
  TGI: > 100 µM
